From US20090016956A1, “Labeled Macrophages and Methods of Use Thereof” (priority 2007, published 2009)

Test system: reverse cholesterol transport pathway (RCTP)
Assay: modulation of the reverse cholesterol transport pathway (RCTP); modified in vivo assay (MIVA), release of labeled cholesterol from loaded cells
Details: general statement in the description; the data are only in FIGS. 1-8, values not given
Description: In another embodiment, the invention includes a method of loading of cells, (e.g., macrophages in culture) with labeled cholesterol, e.g., radiolabeled cholesterol, by exposing the cells to autologous red cell membrane fragments which have been equilibrated with labeled cholesterol. The exposed cells phagocytose the red cell membrane fragments and internalize and store the labeled cholesterol becoming, in effect, foam cells. These ‘loaded’ cells are then administered, e.g., intraveneously injected, into a subject and allowed to distribute throughout the subject and settle within its organs (e.g., heart, lung, kidney, liver). A base level of cholesterol release is observed. After an appropriate length of time, the subject is treated with the test agent, or compound of interest and the release of label (e.g., labeled cholesterol) is measured and/or monitored as a function of time, dose, or dosing regimen. The appropriate length of time may be approximately twenty four hours, although it may also be longer or shorter, if so desired.
Stimulation of cholesterol release from the introduced loaded cells results in a transient increase in the amount of circulating label over baseline. Measurement of the kinetics of label release is carried out by direct analysis of samples of circulating whole blood, plasma, serum, feces, urine, saliva and/or cerebral spinal fluid. […]

## CCCCCCCCCC[Si](C)(C)CCC(=O)NC(Cc1ccc(C)cc1)c1ccccc1 (stereo not shown) [Sandoz 58-035]
  effectiveness in modulation of the RCTP: effective in modulation of the RCTP
